Source: patent US9198420B2, “Rodenticidal norbormide analogues” (priority 2012, dated 2015)
Like-named read-outs stand apart in the source and are kept apart here. Marks after values point to notes of the source that are not given here.

What was measured:
rat caudal artery = experiment: Rat caudal artery ring contractile force (vasoconstrictory activity); set-up: species or system rat (male Wistar)
How it was run: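 Endothelium-denuded caudal artery rings from male Wistar rats were held at 2 g resting tension in Tyrode solution (37° C, pH 7.35, 95% O2/CO2) and isometric force was recorded. Compounds were tested at 50 μM, with contraction expressed as percent of the 90 mM KCl response.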

Sprague Dawley rats [1] = experiment: In vivo lethality, intravenous injection via the tail; set-up: species or system rat (Sprague Dawley); conditions: rat
Experimental: (§1) Sprague Dawley rats (150-200 g) were used to appraise the rodenticidal activity of the compounds put forward for in vivo evaluation. Briefly, prior to administration the compounds were dissolved in 0.2 M hydrochloric acid (5% DMSO overall), to the desired dose, and without delay either injected intravenously, via the tail, or orally gavaged. All treated animals were housed in a quiet room and monitored every minute (i.v) or every 15 min (oral) to verify early signs of toxicity.

Sprague Dawley rats [2] = experiment: Palatability (no-choice) trial, peanut butter bait; type: in vivo, rat (Sprague Dawley); conditions: po, 1% w/w toxicant in peanut butter bait
Source text: In the palatability trials, Sprague Dawley rats (ca. 250 g) were presented with 1% w/w compound (n=6) or 0.5% w/w compound (n=5) in a peanut butter bait, following 3 days ‘pre-baiting’ with a peanut butter formulation free of toxicant.

Sprague Dawley rats [3] = experiment: In vivo lethality, oral gavage; set-up: species or system rat (Sprague Dawley); conditions: rat; for Time to Death (min) / Onset of Symptoms: mean time; for Onset of Symptoms: visual signs of distress consistent with NRB-like symptoms
Experimental: as §1

[4] = Table 1, read-out: Vasoconstriction: maximum contractile effect as a % of 90 mM KCl contraction
[5] = n = 6, 3 male and 3 female rats, Table 11, read-out: No of deaths (converted)
[6] = Table 7, compounds of formula (V)
[7] = n = 6, 3 male and 3 female rats, Table 12, read-out: No of deaths (converted)

Structure (SMILES) | Vasoconstriction: maximum contractile effect as a % of 90 mM KCl contraction (rat caudal artery; n = 3, Table 8) | In vivo lethality (i.v.) (Sprague Dawley rats [1]; 20 mg/Kg, n = 3, Table 8) | Emax (rat caudal artery; [4]) | Vasoconstriction: maximum contractile effect as a % of 90 mM KCl contraction (rat caudal artery; Table 4, pre-cleavage, n = 3) | In vivo lethality (i.v.) (Sprague Dawley rats [1]; 20 mg/Kg, n = 2) | mortality at 1 % (Sprague Dawley rats [2]; [5]) | Time to Death (min) (Sprague Dawley rats [3]; 20 mg/Kg) | Onset of Symptoms (Sprague Dawley rats [3]; 20 mg/Kg) | In vivo lethality (oral) (Sprague Dawley rats [3]; 20 mg/Kg, n = 2) | In vivo lethality (oral) (Sprague Dawley rats [3]; 40 mg/Kg, n = 2) | other results
O=C(O)CN1C(=O)C2C3C=C(C(O)(c4ccccc4)c4ccccn4)C(C3=C(c3ccccc3)c3ccccn3)C2C1=O (stereo not drawn) [Compound 107, N-Carboxymethyl-5-(α-hydroxy-α-2-pyridylbenzyl)-7-(α-2-pyridylbenzylidene)-5-norbornene-2,3-dicarboximide] | ≧132% | yes^b |  |  |  |  |  |  |  |  | Emax (rat caudal artery; Table 7, compounds of formula (V), read-out: Vasoconstriction: maximum contractile effect as a % of 90 mM KCl contraction): ≥ 132%
O=C(Cc1ccccc1)OCN1C(=O)C2C3C=C(C(O)(c4ccccc4)c4ccccn4)C(C3=C(c3ccccc3)c3ccccn3)C2C1=O (stereo not drawn) [Compound 16, 5-(α-Hydroxy-α-2-pyridylbenzyl)-N-phenylacetyloxymethyl-7-(α-2-pyridylbenzylidene)-5-norbornene-2,3-dicarboximide] |  |  | 15% | 15% | yes^f | 83.3% | 90^d min | 15 min | yes^h,i | yes^h,i | 
COc1ccc(C(=O)OCN2C(=O)C3C4C=C(C(O)(c5ccccc5)c5ccccn5)C(C4=C(c4ccccc4)c4ccccn4)C3C2=O)cc1 (stereo not drawn) [Compound 15, 5-(α-Hydroxy-α-2-pyridylbenzyl)-N-p-methoxybenzoyloxymethyl-7-(α-2-pyridylbenzylidene)-5-norbornene-2,3-dicarboximide] |  |  | 0% | 0% |  |  |  |  |  |  | melting point: 94 to 112 °C
CC(C)(C)C(=O)OCN1C(=O)C2C3C=C(C(O)(c4ccccc4)c4ccccn4)C(C3=C(c3ccccc3)c3ccccn3)C2C1=O (stereo not drawn) [Compound 8, 5-(α-Hydroxy-α-2-pyridylbenzyl)-N-pivaloyloxymethyl-7-(α-2-pyridylbenzylidene)-5-norbornene-2,3-dicarboximide] |  |  | ≥ 132% | ≧132% |  |  |  |  |  |  | melting point: 95 to 98 °C
O=C1C2C3C=C(C(O)(c4ccccc4)c4ccccn4)C(C3=C(c3ccccc3)c3ccccn3)C2C(=O)N1CCO (stereo not drawn) [Compound 102, N-2′-Hydroxyethyl-5-(α-hydroxy-α-2-pyridylbenzyl)-7-(α-2-pyridylbenzylidene)-5-norbornene-2,3-dicarboximide] | ≧132% | yes^b |  |  |  |  |  |  |  |  | Vasoconstriction: maximum contractile effect as a % of 90 mM KCl contraction (rat caudal artery; [6]): ≧132%; In vivo lethality (oral) (Sprague Dawley rats [3]; 20 mg/Kg, n = 3, Table 8): yes^c,d; In vivo lethality (oral) (Sprague Dawley rats [3]; 40 mg/Kg, n = 3, Table 8): yes^c,d
CCCCCCCC(=O)OCN1C(=O)C2C3C=C(C(O)(c4ccccc4)c4ccccn4)C(C3=C(c3ccccc3)c3ccccn3)C2C1=O (stereo not drawn) [Compound 10, 5-(α-Hydroxy-α-2-pyridylbenzyl)-N-octanoyloxymethyl-7-(α-2-pyridylbenzylidene)-5-norbornene-2,3-dicarboximide] |  |  | 0% | 0% | yes^f | 100% | not lethal | 15 min |  | yes^h | 
CCOc1ccc(C=CC(=O)NCCN2C(=O)C3C4C=C(C(O)(c5ccccc5)c5ccccn5)C(C4=C(c4ccccc4)c4ccccn4)C3C2=O)cc1 (stereo not drawn) [Compound 345, N-[2′-(4″-Ethoxycinnamamido)ethyl]-5-(α-hydroxy-α-2-pyridylbenzyl)-7-(α-2-pyridylbenzylidene)-5-norbornene-2,3-dicarboximide] |  |  |  | 0% |  |  | 65^d min | 15 min | yes^h,i | yes^h,i | Emax (rat caudal artery; Table 2, read-out: Vasoconstriction: maximum contractile effect as a % of 90 mM KCl contraction): 0%; mortality at 1 % (Sprague Dawley rats [2]; [7]): 33.3%
NCCN1C(=O)C2C3C=C(C(O)(c4ccccc4)c4ccccn4)C(C3=C(c3ccccc3)c3ccccn3)C2C1=O (stereo not drawn) [Compound 106, N-2′-Aminoethyl-5-(α-hydroxy-α-2-pyridylbenzyl)-7-(α-2-pyridylbenzylidene)-5-norbornene-2,3-dicarboximide] | ≧132% | yes^b |  |  |  |  |  |  |  |  | Vasoconstriction: maximum contractile effect as a % of 90 mM KCl contraction (rat caudal artery; [6]): ≧132%
NCc1ccc(C(=O)OCCN2C(=O)C3C4C=C(C(O)(c5ccccc5)c5ccccn5)C(C4=C(c4ccccc4)c4ccccn4)C3C2=O)cc1.O=C(O)C(F)(F)F (stereo not drawn) [Compound 342, N-[2′-(4-Aminomethylbenzoyloxy)ethyl]-5-(α-hydroxy-α-2-pyridylbenzyl)-7-(α-2-pyridylbenzylidene)-5-norbornene-2,3-dicarboximide trifluoroacetate] |  |  | 136% | 136% |  | 66.7% |  |  |  | yes^h | 
O=C1C2C3C=C(C(O)(c4ccccc4)c4ccccn4)C(C3=C(c3ccccc3)c3ccccn3)C2C(=O)N1CCCO (stereo not drawn) [Compound 104, N-3′-Hydroxypropyl-5-(α-hydroxy-α-2-pyridylbenzyl)-7-(α-2-pyridylbenzylidene)-5-norbornene-2,3-dicarboximide] | ≧132% | yes^b |  |  |  |  |  |  |  |  | Vasoconstriction: maximum contractile effect as a % of 90 mM KCl contraction (rat caudal artery; [6]): ≧132%; In vivo lethality (oral) (Sprague Dawley rats [3]; 40 mg/Kg, n = 3, Table 8): yes^c
O=C(C=Cc1ccc(Cl)cc1)OCCN1C(=O)C2C3C=C(C(O)(c4ccccc4)c4ccccn4)C(C3=C(c3ccccc3)c3ccccn3)C2C1=O (stereo not drawn) [Compound 129, N-[2′-(4″-Chlorocinnamoyloxy)ethyl]-5-(α-hydroxy-α-2-pyridylbenzyl)-7-(α-2-pyridylbenzylidene)-5-norbornene-2,3-dicarboximide] |  |  | 0% | 0% | yes^f |  |  |  | yes^h,i | yes^h,i | 
O=C1NC(=O)C2C3C(C(O)(c4ccccc4)c4ccccn4)=CC(C3=C(c3ccccc3)c3ccccn3)C12 (stereo not drawn) [endo-NRB, 5-(α-Hydroxy-α-2-pyridylbenzyl)-7-(α-2-pyridylbenzylidene)-5-norbornene-2,3-dicarboximide, reference compound] | 132% | yes^b |  | 132% | yes^f,g | 66.7% | 35^d min | 5 min | yes^h,i | yes^h,i | Vasoconstriction: maximum contractile effect as a % of 90 mM KCl contraction (rat caudal artery; n = 3, pre-cleavage, Table 6): 132%; In vivo lethality (i.v.) (Sprague Dawley rats [1]; 10 mg/Kg, n = 2): yes^f,g; In vivo lethality (i.v.) (Sprague Dawley rats [1]; 10 mg/Kg, n = 2, Table 6): yes^e,f; In vivo lethality (i.v.) (Sprague Dawley rats [1]; 20 mg/Kg, n = 2, Table 6): yes^e,f; mortality at 1 % (Sprague Dawley rats [2]; [7]): 50%; mortality at 1 % (Sprague Dawley rats [2]; n = 6, male rats only, Table 10, read-out: No of deaths (converted)): 50%; In vivo lethality (oral) (Sprague Dawley rats [3]; 20 mg/Kg, n = 2, Table 6): yes^g,h; In vivo lethality (oral) (Sprague Dawley rats [3]; 20 mg/Kg, n = 3, Table 8): yes^c,d; In vivo lethality (oral) (Sprague Dawley rats [3]; 40 mg/Kg, n = 2, Table 6): yes^g,h; In vivo lethality (oral) (Sprague Dawley rats [3]; 40 mg/Kg, n = 3, Table 8): yes^c,d
CC(C)c1ccc(C=CC(=O)OCCN2C(=O)C3C4C=C(C(O)(c5ccccc5)c5ccccn5)C(C4=C(c4ccccc4)c4ccccn4)C3C2=O)cc1 (stereo not drawn) [Compound 347, 5-(α-Hydroxy-α-2-pyridylbenzyl)-N-[2′-(4″-isopropylcinnamoyloxy)ethyl]-7-(α-2-pyridylbenzylidene)-5-norbornene-2,3-dicarboximide] |  |  | 0% | 0% |  |  | not lethal | 20 min |  | yes^h | mortality at 1 % (Sprague Dawley rats [2]; [7]): 50%
